Measured values from a melting point compilation (Tetko et al.; mined from patent text by program, amines drawn as free bases though some values may be those of a salt).

melting point [°C]	Structure (SMILES)
> 240	COC(=O)CCCCN(CCc1cc(-c2ccc(F)cc2F)ccc1OCc1ccc(-c2ccc(C(F)(F)F)cc2)cc1)Cc1ccc(C(=O)OC)cc1
180 to 182	N#Cc1ccc(Nn2cnnc2)cc1-c1ccc(OCc2ccccc2)cc1
179 to 181	O=[N+]([O-])c1cnc(Sc2n[nH]c(-c3cccs3)n2)s1
147 to 148	O=C(Nc1ccc(F)cc1)OC1CCCNC1 (centres undefined)
203 to 205	Cc1cc(-c2nc(C)c(C)o2)cc(C)c1O
90	CCOP(=O)(CCN1CCC(N(CCN)S(=O)(=O)c2ccc(Nc3nccc(Nc4ccc(F)cc4)n3)cc2)CC1)OCC
179 to 182	Cc1ccc2c(O)cc(=O)oc2c1
81 to 82	C/C(=C\c1ccc(OCCN(C)C)cc1)c1ccc2c(c1)C(C)(C)CCS2
100 to 101	O=C(Cc1ccccc1)Nc1ccccc1SCc1ccc(Cl)cc1
90	CC(=O)N(C#N)C1(c2ccc(OCc3ccc4ccccc4n3)cc2)CCCC1
151 to 153	N#Cc1ccc2c(c1)OCC21C(=O)N(Cc2ccccn2)c2ccccc21 (centres undefined)
190	COc1ccccc1Oc1c(Cl)nc(N)nc1Cl
145 to 147	O=c1cccc2nccncc1-2
85 to 87	O=[N+]([O-])c1cccc(-n2cccn2)c1
166 to 168	C#CCN1C(=O)COc2cc(F)c(-c3ccc(C(F)(F)F)n(C)c3=O)cc21
144 to 146	O=C(O)c1ccccc1-c1cc(-c2ccccc2)on1
104 to 106	CCOC(=O)C1CC12CCN(c1ccc(N3CC(CNC(C)=O)OC3=O)cc1F)CC2 (centres undefined)
166 to 168	COc1cc2cc3c(Cl)ncnc3cc2cc1OCCN1CCOCC1
185 to 194	CN(C)c1cc(F)c(S(=O)(=O)N(C)C)cc1-n1c(=O)cc(C(F)(F)F)n(C)c1=O
111 to 120	COc1ccc(CCN2C(=O)OC3(CCN(Cc4ccccc4)CC3)C2(C)O)cc1OC (centres undefined)
65	CCn1nnc(-c2cccc(-c3ccnc4c(-c5cc(C)cc(C)c5)cnn34)c2)n1
225 to 227	NC(=O)c1ccc(Cl)c2c1C=C([N+](=O)[O-])CO2
84 to 85	COc1cc2c(cc1OC)CC(=O)N(CCCCl)C=C2
231	CC1(C)CCC(C)(C)c2cc(-c3cc(-c4ccc(C(N)=O)cc4-c4ccc(O)cc4)ccc3-c3ccccc3)ccc21

melting point [°C]	Structure (SMILES)
154	COc1ccccc1C(=O)c1cccc2c1ccn2S(=O)(=O)c1ccc(C)cc1
64 to 65	NC(=O)CCCCCc1cccnc1
115 to 118	Fc1ccc(C(=C(c2ccccc2)c2ccc(OCCBr)cc2)C(F)(F)F)cc1
76 to 80	O=C1CCc2ccc(OCCCl)cc21
112 to 116	O=c1c2c(Cl)cc(Cl)cc2n(Cc2ccccc2)c(=O)n1Cc1cccc(F)c1
186 to 188	O=C(O)COc1ccc(-c2cc(O)c(Sc3ccccc3)c(=O)o2)cc1
208 to 210	COc1ccc2cc(-c3ccc(-c4ccccc4)[nH]3)ccc2c1
> 220	CCOC(=O)c1ccc(NC(=O)CC(C(=O)Nc2ccc(NC(=O)Nc3ccccc3C)cc2)c2ccccc2)cc1 (centres undefined)
168 to 171	CCCCCCOc1c(OC)cc(N)c2ncccc12
104 to 111	CC(C)N(CCC(CCN1CCCCC1)(C(N)=O)c1ccccc1Cl)Cc1ccccc1 (centres undefined)
79 to 80	COCCOc1ncc(Br)nc1-c1ccc(Cl)cc1
103	COC(=O)N(C)CCCCCC(=O)OC[C@@H]1CC(c2ccc(-c3ccc(N4C[C@H](Cn5ccnn5)OC4=O)cc3F)cn2)=NO1
> 300	CC(C)Cn1cnc2c(O)nc3ccccc3c21
100	CCOC(=O)c1ccc(OCC2(O)CCN(Cc3ccccc3)CC2)cc1
82 to 84	Cc1ccc(-c2cc3c(s2)CCCCC3=O)cc1
206 to 211	FC(F)(F)c1ccc(-c2cc(Oc3cncc4ccccc34)ncn2)cc1
50	COc1ccc(COc2ncccc2C(=O)O)cc1OC1CC2CCC1C2 (centres undefined)
226 to 227	COc1ccc(-c2c(C)nc(N)nc2C2CCN(C(=O)c3ccccc3)CC2)cc1
167 to 168	NS(=O)(=O)c1ccc(-c2nc(C(F)(F)F)oc2-c2ccc(Cl)cc2)cc1
194	CC(=O)NCc1c(C)cc(CO)cc1C
> 240	CSc1nc2ccnn2c(N)c1C#N
87 to 92	Ic1sc2ccccc2c1Oc1ccc(OCc2ccccc2)cc1
223	COc1cc(-n2c(-c3cc(-c4cnc5[nH]ccc5c4)ccn3)cn(C)c2=O)ccc1Cl
224 to 226	COc1nc2sccc2c2nc(S(=O)(=O)Nc3c(Cl)cccc3Cl)nn12

melting point [°C]	Structure (SMILES)
204 to 205	Cn1c(=O)n(-c2ccnc(N)c2)c2ccccc21
147 to 148	CCOC(=O)Cn1c(-c2ccc(C(F)(F)F)cc2)nc2cccnc21
81 to 82	CC(=O)OCn1c(C(=O)OC(C)C)nc(Cl)c1Cl
150 to 152	O=C(c1cccn1N1C(=O)c2ccccc2C1=O)C1CC1
45 to 47	Cc1cc(CCCCCOc2c(Cl)cc(-c3cccs3)cc2Cl)on1
144	N#Cc1ccc(-c2ccc(O)c(C=O)c2)cc1
200	CC(Oc1ccc2nc(NC(=O)NCCN3CCOCC3)sc2c1)c1c(F)ccc(Cl)c1Cl (centres undefined)
126 to 128	CCCc1nccn1-c1nc(Cl)nc2c1ncn2C1OC(COC(C)=O)C(OC(C)=O)C1OC(C)=O (centres undefined)
99 to 104	CCCCc1ccc(C(=O)NCc2c[nH]c(=S)n2[C@H]2CCc3c(F)cc(F)cc3C2)nc1
203 to 204	CCC1CC(=O)Nc2c1cnn2CC (centres undefined)
185 to 187	CC1(C)O[C@@H]2[C@H](O1)[C@@H](CO)O[C@H]2n1cnc2c(N)nc(I)nc21
62 to 64	C#CCOc1ncc(Cl)cc1OC
174 to 176	NNC(=S)Nc1ccc2ccccc2c1
179 to 181	O=C(NCc1cccnc1)c1ccc(OCc2ccc3ccccc3n2)cc1C1(c2ccccc2)CC2CCC1C2 (centres undefined)
203 to 205	CSc1nn2c(N)cc(CN3CCN(C)CC3)nc2c1S(=O)(=O)c1ccccc1
196 to 197	Cc1cc(O)c(O)cc1S(=O)(=O)c1ccc(Cl)c([N+](=O)[O-])c1
139	Cc1cc(C)cc(C(=O)OCC2(N3CCN(C(=O)OC(C)(C)C)CC3)Cc3ccccc3C2)c1
70 to 71	CC(C)c1cnc(NC(=O)Cc2csc(NC(=O)CN(C)C)n2)s1
158	CCn1cnc2c(Nc3ccccc3)nc(Cl)nc21
215 to 216	CCCc1nc(C)n2[nH]c(=O)nc2c1Cc1ccc(-c2ccccc2C#N)cc1
81 to 82.5	CONS(=O)(=O)c1ccc(Cl)cc1
166 to 168	CC[Si](CC)(CC)c1ccc2c(c1)cc(C(=O)Nc1ccc(N3CCC3)nc1)n2Cc1cccc(F)c1
39 to 40	COC(=O)CCc1cc(F)ccc1C(=O)CCCNC(C)=O
289 to 290	CCCCOC(=O)c1ccc(NC2=NC3=NC(Nc4ccc(C(=O)OCCCC)cc4)=NC4=NC(Nc5ccc(C(=O)OCCCC)cc5)=NC(=N2)N34)cc1

melting point [°C]	Structure (SMILES)
52 to 52.5	O=C1CCC(CCO)N1 (centres undefined)
107 to 109	Cc1cccc2c1C=Cc1ccccc1C2(C)O (centres undefined)
192	CC(=O)NC[C@H]1CN(c2cc(F)c(N3CCC(n4nnnc4CS(C)(=O)=O)CC3)c(F)c2)C(=O)O1
177 to 178	O=C1N=CC(OCc2ccccc2)(C(F)(F)F)c2cc(Cl)ccc2N1 (centres undefined)
112 to 115	O=[N+]([O-])c1cc(Br)ccc1-c1ccc(Cl)cc1Cl
97 to 98	CCOC(=O)C=C(C)Oc1ccc(C23CC4CC(CC(C4)C2)C3)cc1
224	CC(C)NCCCC[C@@H](N)C(=O)O
133 to 134	C=C(C)C(C(=O)OCC(Cl)(Cl)Cl)N1C(=O)C(NC(=O)Cc2ccccc2)C1SSc1nc2ccccc2s1 (centres undefined)
253	CC1(C)Oc2ccncc2[C@@H](N2CCCC2=O)[C@@H]1O (relative stereo)
> 200	Cc1ccc(S(=O)(=O)c2cc3cnc(C)nc3nc2O)cc1
134 to 137	O=C(O)c1c[nH]c(Sc2cccc(Cl)c2)c1
187 to 188	COc1cccc2sc(-c3ccc([N+](=O)[O-])cc3Cl)nc12
181 to 183	O=C(Nc1ccc2nc(CN3CCCC3)ccc2c1)c1ccc(-c2ccccc2)cc1
126	CCCCC[C@@H](CNC(=O)Nc1c(OC(C)C)c(C)nn1-c1ccccc1)c1cccc2c1OCO2
313 to 315	Cc1cc(-n2cc(-c3ccc(S(C)=O)cc3)nc2C)cc2ccc(=O)[nH]c12 (centres undefined)
84 to 85	CCOC(OCC)c1nc2sc(C)c(C)n2c(=O)c1C
309 to 312	Nc1ccc(-c2nccc3[nH]c(=O)ccc23)cc1
184	COc1ccc(C2=NN(Cc3ccc(NC(=O)c4cccnc4)cc3)C(=O)CC2)cc1OC
145	COc1cccc(OC)c1-c1ccc(C[C@H](NC(=O)c2c(Cl)ccc(-c3c(C)noc3C)c2Cl)C(=O)O)cc1
108 to 111	CCCCOC(=O)NS(=O)(=O)CCc1cc(OCCCC)nn1Cc1ccc(Cl)cc1Cl
109 to 114	N#CSc1cnn(-c2nc(F)c(C(F)(F)F)cc2Cl)c1N
157 to 158	Cc1ccc(C(=O)Nc2cccc(C(F)(F)F)c2)cc1Br
119	CCOC(=O)Cc1cc(C(=O)OC)ccc1NC(C)=O
163 to 164	O=Cc1c2ccccc2cc2cc3ccccc3cc12

Structure (SMILES)	melting point [°C]
Oc1c(CCl)cc(F)cc1CCl	70
Cc1c(N2C(=O)C[C@H](O)[C@@H]2C)ccc(C#N)c1F	114 to 115
CN(C)C1(c2cccc(F)c2)CCC(CC(=O)NCCCc2ccccc2)CC1 (centres undefined)	119 to 122
